Data reported in US20230286958A1, “PLASMA KALLIKREIN INHIBITORS” (Merck Sharp & Dohme LLC, priority 2020, published 2023).

What was measured:
[1] = molecular target: Human plasma kallikrein (Homo sapiens (Human), UniProt P03952); assay: Kallikrein Assay (fluorogenic substrate Acetyl-K-P-R-AFC); assay type: biochemical; conditions: Plasma Kallikrein (PKal)
In short: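 Ki is derived from IC50 with the Cheng-Prusoff equation, and IC50 from the inflection point of a four-parameter logistic curve. The rate of AFC release is read with 0.5 nM purified enzyme and […] substrate at room temperature or 37 °C.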

[2] = molecular target: human Factor XIa (Homo sapiens (Human), UniProt P03951); assay: Factor XIa Assay (fluorogenic substrate GPR-AFC); assay type: biochemical; conditions: Factor XIa (FXIa)
Chain of human Factor XIa (P03951 388-625 limits assumed): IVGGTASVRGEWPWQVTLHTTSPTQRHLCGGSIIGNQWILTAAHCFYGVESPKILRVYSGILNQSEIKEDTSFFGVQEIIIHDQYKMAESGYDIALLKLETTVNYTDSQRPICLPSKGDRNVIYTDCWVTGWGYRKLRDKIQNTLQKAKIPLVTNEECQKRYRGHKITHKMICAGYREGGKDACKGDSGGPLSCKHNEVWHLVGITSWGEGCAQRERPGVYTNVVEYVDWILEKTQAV
Chain of human Factor XIa (P03951 19-387 partner limits assumed): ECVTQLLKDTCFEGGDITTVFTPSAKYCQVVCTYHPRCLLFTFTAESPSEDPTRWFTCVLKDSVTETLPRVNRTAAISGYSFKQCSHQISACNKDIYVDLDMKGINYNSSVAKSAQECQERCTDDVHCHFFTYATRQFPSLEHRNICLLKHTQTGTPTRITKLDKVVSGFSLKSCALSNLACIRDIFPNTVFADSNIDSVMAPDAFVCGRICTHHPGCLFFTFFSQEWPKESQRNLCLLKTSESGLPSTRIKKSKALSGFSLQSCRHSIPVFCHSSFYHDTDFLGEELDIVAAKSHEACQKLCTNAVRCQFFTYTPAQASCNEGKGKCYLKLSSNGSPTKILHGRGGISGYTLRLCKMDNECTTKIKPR

Chain of Human plasma kallikrein (P03952 391-638): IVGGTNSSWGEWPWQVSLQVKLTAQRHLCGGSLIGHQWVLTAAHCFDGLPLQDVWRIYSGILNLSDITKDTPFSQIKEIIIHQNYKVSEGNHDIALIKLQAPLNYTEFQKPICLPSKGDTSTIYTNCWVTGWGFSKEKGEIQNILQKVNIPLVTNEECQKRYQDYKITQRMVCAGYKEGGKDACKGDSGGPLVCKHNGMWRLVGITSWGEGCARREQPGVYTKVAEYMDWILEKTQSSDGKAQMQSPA
Chain of Human plasma kallikrein (P03952 20-390 partner): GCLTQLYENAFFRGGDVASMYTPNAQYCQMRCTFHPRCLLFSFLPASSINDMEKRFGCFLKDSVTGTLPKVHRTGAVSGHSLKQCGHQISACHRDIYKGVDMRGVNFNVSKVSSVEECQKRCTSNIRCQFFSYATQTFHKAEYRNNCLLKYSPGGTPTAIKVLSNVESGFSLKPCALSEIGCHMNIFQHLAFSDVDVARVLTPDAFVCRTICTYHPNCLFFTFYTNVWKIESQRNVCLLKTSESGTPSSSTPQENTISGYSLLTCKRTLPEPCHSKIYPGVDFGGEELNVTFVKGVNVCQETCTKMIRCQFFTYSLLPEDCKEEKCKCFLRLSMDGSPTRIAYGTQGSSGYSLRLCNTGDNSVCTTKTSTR

Row | SMILES | IC50 [1] | IC50 [2]
1 | Cc1cc(C(C)n2cc(NC(=O)c3nc(-c4c(C(F)F)ccc(Cl)c4F)cnc3C(C)O)cn2)nnc1N1C[C@H]2C[C@H]2C1=O (single isomer, unassigned) [Example 231, 6-(3-Chloro-6-(difluoromethyl)-2-fluorophenyl)-3-((R or S)-1-hydroxyethyl)-N-(1-((R or S)-1-(5-methyl-6-((1R,5S)-2-oxo-3-azabicyclo[3.1.0]hexan-3-yl)pyridazin-3-yl)ethyl)-1H-pyrazol-4-yl)pyrazine-2-carboxamide] | 5 nM | 903 nM
2 | Cc1nc(N2C[C@@H]3C[C@@H]3C2=O)ncc1[C@H](CO)n1cc(NC(=O)c2cncc(-c3c(C(F)F)ccc(Cl)c3F)n2)cn1 [Example 158, 6-(3-Chloro-6-(difluoromethyl)-2-fluorophenyl)-N-(1-((R)-2-hydroxy-1-(4-methyl-2-((1S,5R)-2-oxo-3-azabicyclo[3.1.0]hexan-3-yl)pyrimidin-5-yl)ethyl)-1H-pyrazol-4-yl)pyrazine-2-carboxamide] | 2720 nM | > 10000 nM
3 | COc1cc(C(C)n2cc(NC(=O)c3nc(-c4c(C(F)F)ccc(Cl)c4F)cnc3C)cn2)cnc1N1C[C@H]2C[C@H]2C1=O (single isomer, unassigned) [Example 218, 6-(3-Chloro-6-(difluoromethyl)-2-fluorophenyl)-N(1-((S or R)-1-(5-methoxy-6-((1R,5S)-2-oxo-3-azabicyclo[3.1.0]hexan-3-yl)pyridin-3-yl)ethyl)-1H-pyrazol-4-yl)-3-methylpyrazine-2-carboxamide] | 1.8 nM | 414 nM
4 | Cc1nc(Cn2cc(NC(=O)c3cncc(-c4c(C(F)F)ccc(Cl)c4F)n3)cn2)cnc1N1C[C@H]2C[C@H]2C1=O [Example 47, 6-(3-Chloro-6-(difluoromethyl)-2-fluorophenyl)-N-(1-((6-methyl-5-((1R,5S)-2-oxo-3-azabicyclo[3.1.0]hexan-3-yl)pyrazin-2-yl)methyl)-1H-pyrazol-4-yl)pyrazine-2-carboxamide] | 2.5 nM | 1150 nM
5 | Cc1nc(N2C[C@@H]3C[C@@H]3C2=O)ncc1Cn1cc(NC(=O)c2nc(-c3c(C(F)F)ccc(Cl)c3F)cnc2C)cn1 [Example 34, 6-(3-Chloro-6-(difluoromethyl)-2-fluorophenyl)-3-methyl-N-(1-((4-methyl-2-((1S,5R)-2-oxo-3-azabicyclo[3.1.0]hexan-3-yl)pyrimidin-5-yl)methyl)-1H-pyrazol-4-yl)pyrazine-2-carboxamide] | 19.3 nM | 2890 nM
6 | Cc1ncc(-c2c(C(F)F)ccc(Cl)c2F)nc1C(=O)Nc1cnn(C(C)c2cnc(N3C[C@H]4C[C@H]4C3=O)c(F)c2)c1 (single isomer, unassigned) [Example 51, 6-(3-Chloro-6-(difluoromethyl)-2-fluorophenyl)-N-(1-((S or R)-1-(5-fluoro-6-((1R,SS)-2-oxo-3-azabicyclo[3.1.0]hexan-3-yl)pyridin-3-yl)ethyl)-1H-pyrazol-4-yl)-3-methylpyrazine-2-carboxamide] | 2.4 nM | 1380 nM
7 | CCc1ncc(-c2c(C(F)F)ccc(Cl)c2F)nc1C(=O)Nc1cnn(C(C)c2cc(C)c(N3C[C@H]4C[C@H]4C3=O)nn2)c1 (single isomer, unassigned) [Example 239, 6-(3-Chloro-6-(difluoromethyl)-2-fluorophenyl)-3-ethyl-N-(1-((S or R)-1-(5-methyl-6-((1R,5S)-2-oxo-3-azabicyclo[3.1.0]hexan-3-yl)pyridazin-3-yl)ethyl)-1H-pyrazol-4-yl)pyrazine-2-carboxamide] | 1.8 nM | 1230 nM
8 | Cc1nc(C(C)n2cc(NC(=O)c3nc(-c4c(C(F)F)ccc(Cl)c4F)cnc3C)cn2)ccc1N1C[C@H]2C[C@H]2C1=O (single isomer, unassigned) [Example 58, 6-(3-Chloro-6-(difluoromethyl)-2-fluorophenyl)-3-methyl-N-(1-((S or R)-1-(6-methyl-5-((1R,5S)-2-oxo-3-azabicyclo[3.1.0]hexan-3-yl)pyridin-2-yl)ethyl)-1H-pyrazol-4-yl)pyrazine-2-carboxamide] | 0.6 nM | > 10000 nM
9 | COc1nc(N2C[C@H]3C[C@H]3C2=O)ncc1Cn1cc(NC(=O)c2nc(-c3c(C(F)F)ccc(Cl)c3F)cnc2C)cn1 [Example 95, 6-(3-Chloro-6-(difluoromethyl)-2-fluorophenyl)-N-(1-((4-methoxy-2-((1R, 5S)-2-oxo-3-azabicyclo[3.1.0]hexan-3-yl)pyrimidin-5-yl)methyl)-1H-pyrazol-4-yl)-3-methylpyrazine-2-carboxamide] | 14.3 nM | 4590 nM
10 | Cc1nc(N2C[C@H]3C[C@H]3C2=O)ncc1Cn1cc(NC(=O)c2cncc(-c3c(C(F)F)ccc(Cl)c3F)n2)cn1 [Example 24, 6-(3-Chloro-6-(difluoromethyl)-2-fluorophenyl)-N-(1-((4-methyl-2-((1R,5S)-2-oxo-3-azabicyclo[3.1.0]hexan-3-yl)pyrimidin-5-yl)methyl)-1H-pyrazol-4-yl)pyrazine-2-carboxamide] | 10.5 nM | 3110 nM
11 | Cc1ncc(-c2c(C(F)F)ccc(Cl)c2F)nc1C(=O)Nc1cnn(C(C)c2cnc(N3C[C@H]4C[C@H]4C3=O)nc2)c1 (single isomer, unassigned) [Example 29, 6-(3-Chloro-6-(difluoromethyl)-2-fluorophenyl)-3-methyl-N-(1-((S or R)-1-(2-((1R,5S)-2-oxo-3-azabicyclo[3.1.0]hexan-3-yl)pyrimidin-5-yl)ethyl)-1H-pyrazol-4-yl)pyrazine-2-carboxamide] | 9.6 nM | 2040 nM
12 | COCc1ncc(-c2c(C(F)F)ccc(Cl)c2F)nc1C(=O)Nc1cnn([C@@H](C)c2cnc(N3C[C@H]4C[C@H]4C3=O)nc2)c1 [Example 175, 6-(3-Chloro-6-(difluoromethyl)-2-fluorophenyl)-3-(methoxymethy-((S)-1-(2-((1R,5S)-2-oxo-3-azabicyclo[3.1.0]hexan-3-yl)pyrimidin-5-yl)ethyl)-1H-pyrazol-4-yl)pyrazine-2-carboxamide] | 3 nM | 3680 nM
13 | CC(c1ncc(N2C[C@H]3C[C@H]3C2=O)cc1F)n1cc(NC(=O)c2cncc(-c3c(C(F)F)ccc(Cl)c3F)n2)cn1 (single isomer, unassigned) [Example 146, 6-(3-Chloro-6-(difluoromethyl)-2-fluorophenyl)-N-(1-((R or S)-1-(3-fluoro-5-((1R,5S)-2-oxo-3-azabicyclo[3.1.0]hexan-3-yl)pyridin-2-yl)ethyl)-1H-pyrazol-4-yl)pyrazine-2-carboxamide] | 9.8 nM | > 10000 nM
14 | CC(c1cnc(N2C[C@H]3C[C@H]3C2=O)c(F)c1)n1cc(NC(=O)c2nc(-c3c(C(F)F)ccc(Cl)c3F)cnc2CO)cn1 (single isomer, unassigned) [Example 206, 6-(3-Chloro-6-(difluoromethyl)-2-fluorophenyl)-N-(1-((R or S)-1-(5-fluoro-6-((1R,5S)-2-oxo-3-azabicyclo[3.1.0]hexan-3-yl)pyridin-3-yl)ethyl)-1H-pyrazol-4-yl)-3-(hydroxymethyl)pyrazine-2-carboxamide] | 0.3 nM | 120 nM
15 | Cc1cc(C(C)n2cc(NC(=O)c3nc(-c4c(OC(F)F)ccc(Cl)c4F)cnc3C)cn2)cnc1N1C[C@H]2C[C@H]2C1=O (single isomer, unassigned) [Example 131, 6-(3-Chloro-6-(difluoromethoxy)-2-fluorophenyl)-3-methyl-N-(1-((S or R)-1-(5-methyl-6-((1R,5S)-2-oxo-3-azabicyclo[3.1.0]hexan-3-yl)pyridin-3-yl)ethyl)-1H-pyrazol-4-yl)pyrazine-2-carboxamide] | 0.5 nM | 545 nM
16 | Cc1ncc(-c2c(OC(F)F)ccc(Cl)c2F)nc1C(=O)Nc1cnn(C(C)c2cnc(N3C[C@H]4C[C@H]4C3=O)c(C)n2)c1 (single isomer, unassigned) [Example 123, 6-(3-Chloro-6-(difluoromethoxy)-2-fluorophenyl)-3-methyl-N-(1-((S or R)-1-(6-methyl-5-((1R,5S)-2-oxo-3-azabicyclo[3.1.0]hexan-3-yl)pyrazin-2-yl)ethyl)-1H-pyrazol-4-yl)pyrazine-2-carboxamide] | 1 nM | 364 nM
17 | CC(c1ccc(N2CC3CC3C2=O)nc1)n1cc(NC(=O)c2cncc(-c3c(C(F)F)ccc(Cl)c3F)n2)cn1 (single isomer, unassigned) [Example 10, 6-(3-Chloro-6-(difluoromethyl)-2-fluorophenyl)-N-(1-((S or R)-1-(6-((1R,5S or 1S,5R)-2-oxo-3-azabicyclo[3.1.0]hexan-3-yl)pyridin-3-yl)ethyl)-1H-pyrazol-4-yl)pyrazine-2-carboxamide] | 16.8 nM | > 10000 nM
18 | Cc1c(C(C)n2cc(NC(=O)c3nc(-c4c(C(F)F)ccc(Cl)c4F)cnc3CO)cn2)cnc(N2C[C@H]3C[C@H]3C2=O)c1C (single isomer, unassigned) [Example 202, 6-(3-Chloro-6-(difluoromethyl)-2-fluorophenyl)-N-(1-((R or S)-1-(4,5-dimethyl-6-((1R,5S)-2-oxo-3-azabicyclo[3.1.0]hexan-3-yl)pyridin-3-yl)ethyl)-1H-pyrazol-4-yl)-3-(hydroxymethyl)pyrazine-2-carboxamide] | 0.3 nM | 11 nM
19 | Cc1ncc(-c2c(C#N)ccc(Cl)c2F)nc1C(=O)Nc1cnn(C(C)c2cnc(N3C[C@H]4C[C@H]4C3=O)c(F)c2C)c1 (single isomer, unassigned) [Example 136, 6-(3-Chloro-6-cyano-2-fluorophenyl)-N-(1-((R or S)-1-(5-fluoro-4-methyl-6-((1R,5S)-2-oxo-3-azabicyclo[3.1.0]hexan-3-yl)pyridin-3-yl)ethyl)-1H-pyrazol-4-yl)-3-methylpyrazine-2-carboxamide] | 0.2 nM | 591 nM
